Experiment [1] concerns the target T1, human glucocorticoid receptor-α [GRX] isoform (Homo sapiens, UniProt P04150).
T1 construct: host or cells: insect SF21 cells (baculovirus)
T1 sequence (P04150 1-777): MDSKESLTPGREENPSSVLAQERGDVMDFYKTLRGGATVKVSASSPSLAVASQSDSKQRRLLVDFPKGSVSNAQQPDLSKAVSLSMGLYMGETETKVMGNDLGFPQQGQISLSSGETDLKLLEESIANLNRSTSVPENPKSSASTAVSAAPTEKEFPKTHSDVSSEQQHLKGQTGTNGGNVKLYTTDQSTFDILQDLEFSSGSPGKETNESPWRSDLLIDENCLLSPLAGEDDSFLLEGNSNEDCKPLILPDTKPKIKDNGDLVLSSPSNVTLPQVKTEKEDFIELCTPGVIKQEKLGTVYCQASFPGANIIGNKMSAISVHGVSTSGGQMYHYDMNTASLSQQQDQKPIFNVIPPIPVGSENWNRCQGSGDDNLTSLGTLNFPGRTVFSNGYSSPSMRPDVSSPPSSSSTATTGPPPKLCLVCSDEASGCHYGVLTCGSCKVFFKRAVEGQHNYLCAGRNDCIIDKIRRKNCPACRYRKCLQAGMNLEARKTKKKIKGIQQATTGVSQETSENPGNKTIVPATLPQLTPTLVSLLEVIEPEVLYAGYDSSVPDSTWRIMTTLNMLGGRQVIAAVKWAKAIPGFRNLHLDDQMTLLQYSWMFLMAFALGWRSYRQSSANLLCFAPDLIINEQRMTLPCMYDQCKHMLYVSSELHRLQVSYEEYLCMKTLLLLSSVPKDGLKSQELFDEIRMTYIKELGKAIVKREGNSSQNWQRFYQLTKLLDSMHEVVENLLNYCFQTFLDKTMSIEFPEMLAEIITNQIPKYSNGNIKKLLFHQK
Put plainly: Radioligand binding with human glucocorticoid receptor cytosol ([3H]-dexamethasone competition).
From the text: Briefly, cytosol preparations of human glucocorticoid receptor-α [GRX] isoform and human progesterone receptor-A [PRA] isoform were obtained from Ligand Pharmaceuticals (San Diego, Calif.). Both receptor cDNAs were cloned into baculovirus expression vectors and expressed in insect SF21 cells. [^3H]-dexamethasone (Dex, specific activity 82-86 Ci/mmole) and [^3H]-progesterone (Prog, specific activity 97-102 Ci/mmol) were purchased from Amersham Life Sciences (Arlington Heights, Ill.). Glass fiber type C multiscreen MAFC NOB plates were from Millipore (Burlington, Mass.). Hydroxyapatide Bio-Gel HTP gel was from Bio-Rad Laboratories (Hercules, Calif.). Tris(hydroxymethyl)aminomethane (Tris), ethylenediaminetetraacetic acid (EDTA), glycerol, dithiothreitol (DTT) and sodium moylybdate were obtained from Sigma Chemicals (St. Louis, Mo.). Microscint-20 scintillation fluid was from Packard Instrument (Meriden, Conn.).
Stock solutions (32 mM) of compounds were prepared in dimethylsulfoxide (DMSO), and 50× solutions of test compounds were prepared from the 32 mM solution with a 50:50 mixture of DMSO/ethanol. The 50× solution was then diluted with binding buffer that contained 10 mM Tri-HCl, 1.5 mM EDTA, 10% glycerol, 1 mM DTT, 20 mM sodium molybdate, pH 7.5 @4° C. 1% DMSO/ethanol was present in the binding assay.
For GR binding assays, [^3H]-Dex (˜35,000 dpm (˜0.9 nM)), GRX cytosol (˜35 μg protein), test compounds and binding buffer were mixed in a total volume of 200 μL and incubated at 4° C. overnight in a plate shaker. Specific binding was defined as the difference between binding of [^3H]Dex in the absence and in the presence of 1 μM unlabelled Dex.
After an overnight incubation, 50 μL of hydroxyapatite (25% weight/volume) slurry were added to each well and plates were incubated for 10 min at 0° C. in a plate shaker. Plates were suctioned with a Millipore vacuum manifold and each well was rinsed with 300 μL of ice-cold binding buffer. A 250 μL aliquot of Packard Microscint-20 was added to each well and the wells were shaken at room temperature for 20 minutes. The amount of radioactivity was determined with a Packard TopCount plate reader.
The Ki of test compounds was determined using the Cheng-Prusoff equation Ki=IC50/(1+[L*]/[KL]) where L* is the concentration of radioligand and KL is the dissociation constant of the radioligand determined from saturation analysis.

Experiment [2] addresses T2, human progesterone receptor-A [PRA] isoform (Homo sapiens, UniProt P06401).
T2 construct: host or cells: insect SF21 cells (baculovirus)
T2 sequence (P06401 1-769 isoform P06401-2): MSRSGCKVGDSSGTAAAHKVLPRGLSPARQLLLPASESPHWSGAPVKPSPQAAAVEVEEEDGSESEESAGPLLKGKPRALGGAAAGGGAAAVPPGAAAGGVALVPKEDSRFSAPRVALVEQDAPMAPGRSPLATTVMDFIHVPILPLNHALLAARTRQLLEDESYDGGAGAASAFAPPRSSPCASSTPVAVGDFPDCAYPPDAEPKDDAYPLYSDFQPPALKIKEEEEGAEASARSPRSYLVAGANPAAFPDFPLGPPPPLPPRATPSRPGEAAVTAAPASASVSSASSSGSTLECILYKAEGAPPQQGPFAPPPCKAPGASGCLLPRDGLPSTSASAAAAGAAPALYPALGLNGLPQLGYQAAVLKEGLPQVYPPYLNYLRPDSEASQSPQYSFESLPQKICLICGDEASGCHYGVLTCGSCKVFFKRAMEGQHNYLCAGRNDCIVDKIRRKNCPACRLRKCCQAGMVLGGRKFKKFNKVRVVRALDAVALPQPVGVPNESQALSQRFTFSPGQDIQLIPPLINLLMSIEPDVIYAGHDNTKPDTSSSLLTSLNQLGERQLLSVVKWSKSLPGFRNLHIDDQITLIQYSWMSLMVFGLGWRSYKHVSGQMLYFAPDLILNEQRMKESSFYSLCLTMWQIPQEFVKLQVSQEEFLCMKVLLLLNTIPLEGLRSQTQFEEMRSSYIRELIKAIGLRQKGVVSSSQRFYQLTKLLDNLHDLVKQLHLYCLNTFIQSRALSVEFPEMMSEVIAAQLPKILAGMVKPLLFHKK
The experiment in a line: Radioligand binding with human progesterone receptor cytosol ([3H]-progesterone competition).

The mark [3] stands for this setting: GRX cytosol expressed in insect SF21 cells, [3H]-Dex ~0.9 nM, 4° C. overnight, Ki by Cheng-Prusoff, KL ~[…], read-out: Ki (nM) GR.
Setting [4] is: PRA cytosol expressed in insect SF21 cells, [3H]Prog ~0.8 nM, 4° C. overnight, Ki by Cheng-Prusoff, KL ~4.5 nM, read-out: Ki (nM) PR.

The results in this text go back to patent US6506766B1 (Abbott Laboratories, priority 1998, dated 2003).

Read-outs that look alike come from different tables or passages of the source.

For `C=CCC1Oc2cccc(OC)c2-c2ccc3c(c21)C(C)=CC(C)(C)N3` (stereo not shown) [Example 2, 2,5-Dihydro-10-methoxy-2,2,4-trimethyl-5-(2-propenyl)-1H-[1]benzopyrano[3,4-f]quinoline], the figures for the Ki in experiment [1] (setting [3]) and in experiment [2] (setting [4]) were 7.6 nM and 1700 nM, respectively.
Take `C=CCC1Oc2cccc(NC)c2-c2ccc3c(c21)C(C)=CC(C)(C)N3` (stereo not shown) [Example 3, 2,5-Dihydro-2,2,4,N-tetramethyl-5-(2-propenyl)-1H-[1]benzopyrano[3,4-f]quinolin-10-amine]: the Ki in experiment [1] (setting [3]) was 4.8 nM; in experiment [2] (setting [4]), 2650 nM.
The corresponding values for `C=CCC1Oc2cccc(C(=O)OC)c2-c2ccc3c(c21)C(C)=CC(C)(C)N3` (stereo not shown) [Example 4, Methyl 2,5-Dihydro-2,2,4-trimethyl-5-(2-propenyl)-1H-[1]benzopyrano[3,4-f]quinoline-10-carboxylate] are 7 nM and 2960 nM.
Take `C=CCC1Oc2cccc(C=C)c2-c2ccc3c(c21)C(C)=CC(C)(C)N3` (stereo not shown) [Example 5, 10-Ethenyl-2,5-dihydro-2,2,4-trimethyl-5-(2-propenyl)-1H-[1]benzopyrano[3,4-f]quinoline]: the results for the Ki in experiment [1] (setting [3]) and in experiment [2] (setting [4]) were 357 nM and at least 10000 nM, respectively.
The corresponding values for `C#Cc1cccc2c1-c1ccc3c(c1C(CC=C)O2)C(C)=CC(C)(C)N3` (stereo not shown) [Example 6, 10-Ethynyl-2,5-dihydro-2,2,4-trimethyl-5-(2-propenyl)-1H-[1]benzopyrano[3,4-f]quinoline] are 3.8 nM and 321 nM.
The corresponding values for `CC1=CC(C)(C)Nc2ccc3c(c21)C(c1ccccc1)Oc1cccc(O)c1-3` (stereo not shown) [Example 7, 2,5-Dihydro-2,2,4-trimethyl-5-phenyl-1H-[1]benzopyrano[3,4-f]quinolin-10-ol] are 4.3 nM and 5680 nM.
As for `C=CCC1Oc2cccc(OC(F)F)c2-c2ccc3c(c21)C(C)=CC(C)(C)N3` (stereo not shown) [Example 8, 10-(Difluoromethoxy)-2,5-dihydro-2,2,4-trimethyl-5-(2-propenyl)-1H-[1]benzopyrano[3,4-f]quinoline], the Ki in experiment [1] (setting [3]) was determined as 168 nM; in experiment [2] (setting [4]) it was 6010 nM.
As for `CCOc1cccc2c1-c1ccc3c(c1C(c1ccccc1)O2)C(C)=CC(C)(C)N3` (stereo not shown) [Example 9, 10-Ethoxy-2,5-dihydro-2,2,4-trimethyl-5-phenyl-1H-[1]benzopyrano[3,4-f]quinoline], the Ki in experiment [1] (setting [3]) was 60.5 nM; in experiment [2] (setting [4]), at least 10000 nM.
The corresponding values for `CC(=O)Oc1cccc2c1-c1ccc3c(c1C(c1ccccc1)O2)C(C)=CC(C)(C)N3` (stereo not shown) [Example 10, 2,5-Dihydro-2,2,4-trimethyl-5-phenyl-1H-[1]benzopyrano[3,4-f]quinoline-10-ol Acetate (Ester)] are 179 nM and 10900 nM.
Consider `COc1cccc2c1-c1ccc3c(c1C(c1cc(C)cc(Br)c1)O2)C(C)=CC(C)(C)N3` (stereo not shown) [Example 11, 5-(3-Bromo-5-methylphenyl)-2,5-dihydro-10-methoxy-2,2,4-trimethyl-1H-[1]benzopyrano[3,4-f]quinoline], for which the Ki in experiment [1] (setting [3]) turned out to be 4.4 nM; in experiment [2] (setting [4]), 288 nM.
Turning to `COc1cccc2c1-c1ccc3c(c1C(c1cccc(OC(C)=O)c1)O2)C(C)=CC(C)(C)N3` (stereo not shown) [Example 12, 3-(2,5-Dihydro-10-methoxy-2,2,4-trimethyl-1H-[1]benzopyrano[3,4-f]quinolin-5-yl)phenol, Acetate (Ester)], the Ki was 8.6 nM in experiment [1] (setting [3]) and at least 10000 nM in experiment [2] (setting [4]).
In the case of `COc1cccc2c1-c1ccc3c(c1C(c1cccc(O)c1)O2)C(C)=CC(C)(C)N3` (stereo not shown) [Example 13, 3-(2,5-Dihydro-10-methoxy-2,2,4-trimethyl-1H-[1]benzopyrano[3,4-f]quinolin-5-yl)phenol], the Ki was 11.1 nM in experiment [1] (setting [3]) and at least 10000 nM in experiment [2] (setting [4]).
Regarding `COc1cccc2c1-c1ccc3c(c1C(c1cccc(OCSC)c1)O2)C(C)=CC(C)(C)N3` (stereo not shown) [Example 14, 2,5-Dihydro-10-methoxy-2,2,4-trimethyl-5-[[3-(methylthio)methoxy]phenyl]-1H-[1]benzopyrano[3,4-f]quinoline], the Ki is 5.2 nM in experiment [1] (setting [3]) and at least 10000 nM in experiment [2] (setting [4]).
Turning to `COc1cccc2c1-c1ccc3c(c1C(c1cccc(OC(=O)N(C)C)c1)O2)C(C)=CC(C)(C)N3` (stereo not shown) [Example 15, [3-(2,5-Dihydro-10-methoxy-2,2,4-trimethyl-1H-[1]benzopyrano[3,4-f]quinolin-5-yl)phenyl]dimethylcarbamate], the Ki is 2.5 nM in experiment [1] (Ki (nM) GR) and at least 10000 nM in experiment [2] (Ki (nM) PR).
Consider `COc1cccc2c1-c1ccc3c(c1C(c1cc(C)cc(-c4ccco4)c1)O2)C(C)=CC(C)(C)N3` (stereo not shown) [Example 16, 5-[3-(2-Furanyl)-5-methylphenyl]-2,5-dihydro-10-methoxy-2,2,4-trimethyl-1H-[1]benzopyrano[3,4-f]quinoline], for which the Ki was 8 nM in experiment [1] (setting [3]) and at least 10000 nM in experiment [2] (setting [4]).
For `COc1cccc2c1-c1ccc3c(c1C(c1cc(C)cc(N4CCOCC4)c1)O2)C(C)=CC(C)(C)N3` (stereo not shown) [Example 17, 2,5-Dihydro-10-methoxy-2,2,4-trimethyl-5-[3-methyl-5-(1-morpholinyl)phenyl]-1H-[1]benzopyrano[3,4-f]quinoline], the values for the Ki in experiment [1] (setting [3]) and in experiment [2] (setting [4]) were 39 nM and at least 10000 nM, respectively.
Regarding `COc1cccc2c1-c1ccc3c(c1C(c1cccc(C(F)(F)F)c1)O2)C(C)=CC(C)(C)N3` (stereo not shown) [Example 21, 2,5-Dihydro-10-methoxy-2,2,4-trimethyl-5-[3-(trifluoromethyl)phenyl]-1H-[1]benzopyrano[3,4-f]quinoline], the Ki in experiment [1] (setting [3]) is 10.7 nM; in experiment [2] (setting [4]), 4020 nM.
For the compound `COc1ccc(C2Oc3cccc(OC)c3-c3ccc4c(c32)C(C)=CC(C)(C)N4)cc1` (stereo not shown) [Example 22, 2,5-Dihydro-10-methoxy-5-(4-methoxyphenyl)-2,2,4-trimethyl-1H-[1]benzopyrano[3,4-f]quinoline], the values for the Ki in experiment [1] (setting [3]) and in experiment [2] (setting [4]) were 6.5 nM and at least 10000 nM, respectively.
For `COc1cccc2c1-c1ccc3c(c1C(c1cccc(Cl)c1)O2)C(C)=CC(C)(C)N3` (stereo not shown) [Example 23, 5-(3-Chlorophenyl)-2,5-dihydro-10-methoxy-2,2,4-trimethyl-1H-[1]benzopyrano[3,4-f]quinoline], the figures for the Ki in experiment [1] (setting [3]) and in experiment [2] (setting [4]) were 8.2 nM and 6150 nM, respectively.
The corresponding values for `COc1cccc2c1-c1ccc3c(c1C(c1cccc(C)c1)O2)C(C)=CC(C)(C)N3` (stereo not shown) [Example 24, 2,5-Dihydro-10-methoxy-2,2,4-trimethyl-5-(3-methylphenyl)-1H-[1]benzopyrano[3,4-f]quinoline] are 3.5 nM and 14800 nM.
As to `COc1cccc2c1-c1ccc3c(c1C(c1cc(C)cc(C)c1)O2)C(C)=CC(C)(C)N3` (stereo not shown) [Example 27, 5-(3,5-Dimethylphenyl)-2,5-dihydro-10-methoxy-2,2,4-trimethyl-1H-[1]benzopyrano[3,4-f]quinoline], the Ki in experiment [1] (Ki (nM) GR) was found to be 5.2 nM; in experiment [2] (setting [4]), 3580 nM.
On to `COc1cccc2c1-c1ccc3c(c1C(c1ccc(Cl)cc1)O2)C(C)=CC(C)(C)N3` (stereo not shown) [Example 28, 5-(4-Chlorophenyl)-2,5-dihydro-10-methoxy-2,2,4-trimethyl-1H-[1]benzopyrano[3,4-f]quinoline], for which the Ki amounted to 4.7 nM in experiment [1] (setting [3]) and 3270 nM in experiment [2] (setting [4]).
Consider `COc1cccc2c1-c1ccc3c(c1C(c1ccc(C)c(C)c1)O2)C(C)=CC(C)(C)N3` (stereo not shown) [Example 29, 5-(3,4-Dimethylphenyl)-2,5-dihydro-10-methoxy-2,2,4-trimethy-1H-[1]benzopyrano[3,4-f]quinoline], for which the Ki is 7.7 nM in experiment [1] (setting [3]) and 7760 nM in experiment [2] (setting [4]).

As a reminder, the Ki is a dissociation constant, usually derived from enzyme kinetics or from competition with a known ligand.
